Test results taken from ChEMBL document CHEMBL4339224, “Identification of a Strigoterpenoid with Dual Nrf2 and Nf-κB Modulatory Activity” (ACS Med Chem Lett, 2019).
Activity calls are given as the source filed them. No cut-off for these calls is given here.

Tests used:
[1] = target: T1, Nuclear factor erythroid 2-related factor 2 (Homo sapiens, UniProt Q16236); test: Activation of Nrf2 in human HaCaT-ARE-Luc cells expressing Nqo1 ARE-Luc reporter plasmid incubated for 6 hrs by luciferase reporter gene assay; type: cell-based
T1 sequence (Q16236 whole entry): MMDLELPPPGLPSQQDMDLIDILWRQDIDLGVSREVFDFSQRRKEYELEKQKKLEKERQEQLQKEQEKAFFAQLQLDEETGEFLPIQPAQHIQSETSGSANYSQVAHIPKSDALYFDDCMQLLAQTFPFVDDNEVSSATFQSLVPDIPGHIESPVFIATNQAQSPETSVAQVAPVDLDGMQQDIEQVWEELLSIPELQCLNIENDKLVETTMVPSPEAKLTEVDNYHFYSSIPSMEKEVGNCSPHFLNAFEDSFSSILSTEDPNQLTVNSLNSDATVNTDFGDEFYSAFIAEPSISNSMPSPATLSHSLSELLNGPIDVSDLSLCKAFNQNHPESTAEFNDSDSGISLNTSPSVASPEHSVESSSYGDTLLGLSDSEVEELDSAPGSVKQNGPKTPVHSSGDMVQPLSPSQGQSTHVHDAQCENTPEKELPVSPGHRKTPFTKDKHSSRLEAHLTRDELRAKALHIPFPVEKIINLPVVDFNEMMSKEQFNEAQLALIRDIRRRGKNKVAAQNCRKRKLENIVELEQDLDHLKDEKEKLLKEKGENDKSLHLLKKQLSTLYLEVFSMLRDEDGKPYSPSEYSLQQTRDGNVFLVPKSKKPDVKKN

[2] = Inhibition of TNFalpha-induced NFkappaB (unknown origin) expressed in mouse NIH3T3-KBF-Luc cells pre-incubated for 15 mins before TNFalpha stimulation for 6 hrs by luciferase reporter gene assay; type: cell-based, Homo sapiens
[3] = organism: Homo sapiens; test: Inhibition of TNFalpha-induced NFkappaB (unknown origin) canonical pathway expressed in mouse NIH3T3-KBF-Luc cells assessed as inhibition of IkappaB-alpha phosphorylation pre-incubated for 15 mins before TNFalpha stimulation for 6 hrs by Western blot analysis; type: cell-based
[4] = target: Transcription factor p65 (Homo sapiens) (UniProt Q04206); test: Inhibition of TNFalpha-induced NFkappaB (unknown origin) canonical pathway expressed in mouse NIH3T3-KBF-Luc cells assessed as inhibition of p65 phosphorylation pre-incubated for 15 mins before TNFalpha stimulation for 6 hrs by Western blot analysis; type: cell-based
[5] = test system: HaCaT; test: Induction of ROS production in human HaCaT cells at 400 uM incubated for 3 hrs by DCFH-DA staining based fluorimetry; type: functional, cell-based
[6] = target: T2, Nuclear factor erythroid 2-related factor 2 (Homo sapiens) (UniProt Q16236); test: Activation of Nrf2 in human HaCaT-ARE-Luc cells expressing Nqo1 ARE-Luc reporter plasmid at 0.1 to 50 uM in presence of 15 mM NAC incubated for 6 hrs by luciferase reporter gene assay; type: cell-based
T2 sequence (whole entry): T1 sequence (Q16236 whole entry)

[7] = test system: HaCaT; test: Induction of ROS production in human HaCaT cells at 10 uM incubated for 3 hrs by DCFH-DA staining based fluorimetry; type: functional, cell-based

Transcription factor p65 (Homo sapiens), sequence (Q04206 whole entry): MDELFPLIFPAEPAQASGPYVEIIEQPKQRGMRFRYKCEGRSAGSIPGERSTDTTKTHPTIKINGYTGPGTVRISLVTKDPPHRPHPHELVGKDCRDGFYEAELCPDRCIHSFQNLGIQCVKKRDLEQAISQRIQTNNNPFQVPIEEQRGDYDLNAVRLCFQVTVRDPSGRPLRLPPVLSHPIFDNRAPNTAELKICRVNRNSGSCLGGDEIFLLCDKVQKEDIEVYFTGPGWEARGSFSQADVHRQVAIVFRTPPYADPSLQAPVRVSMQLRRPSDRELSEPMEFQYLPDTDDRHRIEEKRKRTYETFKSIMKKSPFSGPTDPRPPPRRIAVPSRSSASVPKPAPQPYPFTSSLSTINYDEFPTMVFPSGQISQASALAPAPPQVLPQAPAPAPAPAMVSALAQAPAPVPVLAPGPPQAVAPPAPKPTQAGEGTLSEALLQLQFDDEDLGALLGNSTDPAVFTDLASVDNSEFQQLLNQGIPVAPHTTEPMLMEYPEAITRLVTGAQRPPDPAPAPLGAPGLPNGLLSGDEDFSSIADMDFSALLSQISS

| Compound | EC50 [1] [µM] | IC50 [2] [µM] | further results |
| --- | --- | --- | --- |
| COC(=O)[C@]12CCC(C)(C)C[C@H]1C1=CC[C@@H]3[C@@]4(C)C/C(=C\OC5C=C(C)C(=O)O5)C(=O)C(C)(C)[C@@H]4CC[C@@]3(C)[C@]1(C)CC2 (stereo partly drawn) | > 50 | > 50 | – |
| CC1=CC(O/C=C2\C[C@]3(C)[C@H]4CC=C5[C@@H]6CC(C)(C)CC[C@]6(C)CC[C@@]5(C)[C@]4(C)CC[C@H]3C(C)(C)C2=O)OC1=O (stereo partly drawn) | > 50 | > 50 | – |
| COC(=O)/C(C)=C/CC/C(C)=C/CC/C(C)=C/CC[C@@H]1[C@@]2(C)C/C(=C\OC3C=C(C)C(=O)O3)C(=O)C(C)(C)C2CC[C@@]1(C)O (stereo partly drawn) | 2.5 | – | – |
| CC(C)(C)OO | – | – | Activity [5]: Active |
| C=C(C)[C@@H]1CC[C@]2(C(=O)OC)CC[C@]3(C)[C@H](CC[C@@H]4[C@@]5(C)C/C(=C\OC6C=C(C)C(=O)O6)C(=O)C(C)(C)[C@@H]5CC[C@]43C)[C@@H]12 (stereo partly drawn) | > 50 | > 50 | – |
| CC(C)=CCCC(C)CCOC1C=C(C)C(=O)O1 (stereo not drawn) | 22.8 | > 50 | – |
| C=C(C)[C@@H]1CC=C(C)C(=O)/C1=C/OC1C=C(C)C(=O)O1 (stereo partly drawn) | 1.6 | > 50 | – |
| CC1=CC(OC2C[C@H](C)CC[C@H]2C(C)C)OC1=O (stereo partly drawn) | 26.3 | > 50 | – |
| CC(C)=CCOC1C=C(C)C(=O)O1 (stereo not drawn) | 29.5 | > 50 | – |
| C=C(C)[C@@H]1CC[C@]2(C)CC[C@]3(C)[C@H](CC[C@@H]4[C@@]5(C)C/C(=C\OC6C=C(C)C(=O)O6)C(=O)C(C)(C)[C@@H]5CC[C@]43C)[C@@H]12 (stereo partly drawn) | > 50 | > 50 | – |
| CC1=C[C@H](O/C=C2/C(=O)O[C@@H]3C4=C(C[C@H]23)[C@@H](O)CCC4(C)C)OC1=O [STRIGOL] | 1.2 | – | – |
| CC1=CC(O/C=C2/C(=O)C(C)[C@H]3C[C@@]23C(C)C)OC1=O (stereo partly drawn) | 1.9 | > 50 | – |
| CC1=CC(O/C=C2\C[C@]3(C)[C@H]4CC=C5[C@@H]6[C@@H](C)[C@H](C)CC[C@]6(C)CC[C@@]5(C)[C@]4(C)CC[C@H]3C(C)(C)C2=O)OC1=O (stereo partly drawn) | > 50 | > 50 | – |

Second part, led by results:

| EC50 [1] [µM] | IC50 [2] [µM] | Compound | further results |
| --- | --- | --- | --- |
| > 50 | > 50 | COC(=O)[C@@]1(C)CC[C@]2(C)CC[C@]3(C)C(=CC(=O)[C@@H]4[C@@]5(C)C/C(=C\OC6C=C(C)C(=O)O6)C(=O)C(C)(C)[C@@H]5CC[C@]43C)[C@@H]2C1 (stereo partly drawn) | – |
| 17.8 | > 50 | CC1=CC(O/C=C2/C(=O)[C@H](C(C)C)CC[C@H]2C)OC1=O (stereo partly drawn) | – |
| > 50 | > 50 | COC(=O)[C@]12CC[C@@H](C)[C@H](C)[C@H]1C1=CC[C@@H]3[C@@]4(C)C/C(=C\OC5C=C(C)C(=O)O5)C(=O)C(C)(C)[C@@H]4CC[C@@]3(C)[C@]1(C)CC2 (stereo partly drawn) | inhibition [3]: inactive; inhibition [4]: inactive |
| 16.2 | > 50 | CC(C)=CCC/C(C)=C/COC1C=C(C)C(=O)O1 (stereo not drawn) | – |
| 15.5 | > 50 | CC1=CC(OCC2=CC3CC(C2)C3(C)C)OC1=O (stereo not drawn) | – |
| 16.3 | > 50 | CC1=CC(OCc2ccc(C(C)C)cc2)OC1=O (stereo not drawn) | – |
| 5 | > 50 | CC1=CC(O/C=C2/C(=O)C(=C(C)C)CC[C@H]2C)OC1=O (stereo partly drawn) | – |
| 1.2 | 7.9 | CC1=CC(O/C=C2\C[C@]3(C)C(COc4ccc5ccc(=O)oc5c4)[C@](C)(O)CC[C@H]3C(C)(C)C2=O)OC1=O (stereo partly drawn) | Activity [6]: inactive; Activity [7]: inactive |
